Patent US8497075B2, “Methods of identifying a modulator that inhibits the binding between Epstein-Barr virus induced receptor 2 and cholesterol derived ligands” (Novartis AG, priority 2008, dated 2013)

Columns and labels:
[1] = system: RS11846 cells; test: chemotaxis 96 transwell assay; type: cell-based; details: 3 hr migration
Method: (§1) B cells (RS11846 or EBV-infected human B-cells) or murine bone marrow-derived dendritic cells were washed once with medium and resuspended at 1×10^6/ml. 100 μl of this suspension was added into the wells of the filter plate and gently placed into the receiver plate containing 150 μl of a given compound dilution. The final DMSO concentration was less then 0.1%. After migration for 3 hr at 37° C. in an incubator, the filter plate was carefully removed from the receiver plate and discarded. The migrated cells in the receiver plate were resuspended and transferred into round-bottom 96-well plate, centrifuged and resuspended in 100 μl PBS containing 2% FCS and 0.1% NaN3 (FACS buffer). The input cells (100 μl) were similarly processed. For the calculation of the specific migration, a fixed number of beads (10000; Invitrogen #PCB100)) in 20 μl FACS buffer was added and the suspension was analyzed by flow cytometry using a FACS instrument PAS™ (Partec). Cells were identified based on their forward scatter (FSC) and side scatter (SSC) pattern. Chemotaxis is expressed either as total cell number or as percent of input cells.

[2] = system: MAP/ERK signal in parental CHO cell line; test: Western blot of MAP/ERK phosphorylation, parental CHO cell line without human EBI2; type: cell-based, Chinese hamster; details: high concentrations
Method: Cells (E2=CHO/AEQ/Gqi5/hEBI2) were seeded at 2×10^5 cell/well in a 12 well plate (TPP #92012) and incubated at 37° C./5% CO2 overnight. The next day medium was removed and cells were starved in serum-free medium for 4 h. Subsequently compound was added for 5 min at RT before cells were lysed (70 ul, 0.5% Triton-X100, 300 mM NaCl, 50 mM Tris pH7.5, Complete™ protease inhibitor cocktail Roche #04693124001). Cell lysates were resolved by gradient SDS-PAGE (NuPage™4-12%, #NP0322Box), transferred by semi-dry blotting to nitrocellulose (Invitrogen, #LC2001) and probed with a phospho p42/44 MAPK (T202/Y204) rabbit mAb (Cell Signalling #4376S). After treatment with a secondary goat anti rabbit-HRP (Pierce #41460) antibody the blots were developed for chemiluminescence (SuperSignal West Dura™, Pierce #34075) and visualized using a BioRad GEL DOC™ imaging system.

[3] = system: 26 GPCR binding assays, 9 GPCR functional assays, 40 kinase assays, ion channels, proteases, transporter and enzyme assays; details: data not shown
Description: So far oxysterols have been noted to have various physiological activities namely regulate the expression of genes that participate in both sterol and fat metabolism, serve as substrates for the synthesis of bile acids, and are intermediates in the transfer of sterols from the periphery to the liver (Russell, D. W. (2000). Oxysterol biosynthetic enzymes. Biochim. Biophys. Acta 1529, 126-135). […] This included binding assays for 26 different GPCRs, functional assays of 9 different GPCRs, 40 kinase assays, as well as selected ion channels, proteases, transporter and enzyme assays.

[4] = system: bone marrow-derived dendritic cells from EBI2(−/−) mice; test: chemotaxis assay, EBI2(−/−) dendritic cells; type: cell-based, mouse
Method: as §1
In order to generate sufficient numbers of dendritic cells (DC) we isolated bone marrow from wild type and EBI2-deficient mice (Deltagen) and treated them in culture for 7-8 days with murine IL4 and murine GM-CSF. […]

[5] = molecular target: T1, mouse EBI2 receptor (Mus musculus, UniProt Q3U6B2); test: aequorin assay, mouse EBI2 CHO-Aeq cells; type: cell-based
T1 construct: expressed in transfected cells; host or cells: CHO-K1 expressing apoaequorin (CHO-Aeq), Gqi5 or Gα16 background
Description: (§2) Human EBI2 gene was cloned using RT-PCR from HL-60 cDNA and corresponded to the Genbank accession number NP_004942. The human EBI2 was inserted into the pEFIN3 vector at the EcoRI and XbaI sites in the multiple cloning site. Mouse EBI2 was cloned using RT-PCR from mouse genomic DNA and corresponded to the Genbank accession number Q3U6B2. The mouse EBI2 was inserted into the pEFIN3 vector at the EcoRI and XbaI sites in the multiple cloning site. Plasmids expressing human and mouse EBI2 were stably transfected in CHO-K1 and HEK293 cells expressing the apoaequorin (CHO-Aeq and HEK-Aeq) (Table 1). mRNA sequence integrity of EBI2 gene was checked using RT-PCR at T0 & T30 culture times in CHO cells.
We also confirmed activation of hEBI2 by 7b,25DHC in different CHO-Aeq cell backgrounds (Gqi5 and Gα16 (=WTA11)) (FIG. 14). […] Finally, we confirmed activation of hEBI2 by 7b,25DHC with hEBi2-HEK-Aeq Gα16 cells (pCAeqG9) and hEBi2 transiently transfected in HEK T cells (data not shown).

[6] = molecular target: hEBI2 (Homo sapiens, UniProt P32249); test: luminescent aequorin functional assay, hEBI2 CHO-Aeq (Gqi5) cells; type: cell-based; design: expressed in transfected cells; host or cells: CHO-K1 expressing apoaequorin (CHO-Aeq) with Gqi5; line E2
Description: as §2, with “The” for “Human EBI2 gene was cloned using RT-PCR from HL-60 cDNA and corresponded to the Genbank accession number NP_004942. The”
hEBI2 CHO-Aeq cell lines were screened in a luminescent aequorin functional assay against proprietary libraries of natural ligands and collection of tissue extracts.
3 oxysterol and 3 vitamin D3 compounds were tested for EBI2 activation in an aequorin assay.

Chain of hEBI2 (P32249 whole entry): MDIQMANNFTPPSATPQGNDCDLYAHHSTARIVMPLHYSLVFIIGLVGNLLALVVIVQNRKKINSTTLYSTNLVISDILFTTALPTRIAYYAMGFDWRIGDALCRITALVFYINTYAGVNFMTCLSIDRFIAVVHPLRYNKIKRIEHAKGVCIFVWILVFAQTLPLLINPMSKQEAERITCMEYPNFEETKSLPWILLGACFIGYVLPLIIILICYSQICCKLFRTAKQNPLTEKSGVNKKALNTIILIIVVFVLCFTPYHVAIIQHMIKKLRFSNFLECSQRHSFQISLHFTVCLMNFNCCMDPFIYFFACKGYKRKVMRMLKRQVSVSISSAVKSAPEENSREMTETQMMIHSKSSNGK
T1 sequence (Q3U6B2 whole entry): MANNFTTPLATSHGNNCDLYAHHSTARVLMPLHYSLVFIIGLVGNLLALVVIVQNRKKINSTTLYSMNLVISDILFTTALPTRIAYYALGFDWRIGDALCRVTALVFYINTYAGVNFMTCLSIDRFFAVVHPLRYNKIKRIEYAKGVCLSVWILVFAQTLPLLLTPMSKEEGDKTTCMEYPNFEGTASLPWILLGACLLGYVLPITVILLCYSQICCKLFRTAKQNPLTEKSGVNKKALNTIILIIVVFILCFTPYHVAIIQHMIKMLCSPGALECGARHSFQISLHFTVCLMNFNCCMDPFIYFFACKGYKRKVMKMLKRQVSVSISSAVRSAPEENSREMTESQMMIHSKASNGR

| SMILES | attraction (migration) of RS11846 cells [1] | activation of MAP/ERK signal in control cell line [2] | interaction in safety panel [3] | migration of DCs from EBI2(−/−) mice towards compound [4] | activation of mouse EBI2 receptor [5] | efficacy compared to the ATP response ([6]; ATP response = endogenous P2Y receptors) | activation of hEBI2 in different CHO-Aeq cell backgrounds ([6]; Gqi5 and Gα16 (=WTA11)) | specificity and selectivity of hEBI2 activation ([6]; compared to WT CHO-AeqGqi5 cells and unrelated GPCRs HCR and GPR23) |
| --- | --- | --- | --- | --- | --- | --- | --- | --- |
| C[C@H](CCCC(C)(C)O)[C@H]1CC[C@H]2[C@@H]3[C@H](O)C=C4C[C@@H](O)CC[C@]4(C)[C@H]3CC[C@]12C [7a,25DHC, cholest-5-ene-3b,7a,25-triol] | potently attract | do not activate | In none of these assay did we see a significant interaction | do not migrate |  |  |  |  |
| C[C@H](CCCC(C)(C)O)[C@H]1CC[C@H]2[C@@H]3[C@@H](O)C=C4C[C@@H](O)CC[C@]4(C)[C@H]3CC[C@]12C [7b,25DHC, cholest-5-ene-3b,7b,25-triol] |  |  |  |  | activation | greater than 100% | activation | specifically and selectively activates |
